The values below come from PubChem BioAssay AID330 (DTP/NCI, 2004).

Several values for one entry are separate records, joined by “and”; a condition that tells them apart may be missing. Equal values may be shown once. Toxic doses and inconclusive results are not listed.

The subject of the test is P388 leukemia ip, CD2F1 mice, survival T/C. As to the kind of experiment: NCI In Vivo Anticancer Drug Screen. Data for tumor model P388 Leukemia (intraperitoneal) in CD2F1 (CDF1) mice. Conditions: endpoint: median survival time, higher = longer survival. The essentials: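 Mice carrying the transplanted tumor received test compound or vehicle. Survival was recorded in each group, and the value is the treated-group measurement divided by that of the vehicle-treated control group.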

[1] abbreviates: dose: 60.0 mg/kg/injection, schedule: Q01DX005 (ip), vehicle: saline with Tween-80.
The mark [2] stands for this setting: dose: 120.0 mg/kg/injection, schedule: Q01DX005 (ip), vehicle: saline with Tween-80.
Where [3] appears, read: dose: 240.0 mg/kg/injection, schedule: Q01DX005 (ip), vehicle: saline with Tween-80.
[4] abbreviates: dose: 50.0 mg/kg/injection, schedule: Q01DX005 (ip), vehicle: saline with Tween-80.
[5] abbreviates: dose: 50.0 mg/kg/injection, schedule: Q01DX009 (ip), vehicle: saline.
[6] abbreviates: dose: 100.0 mg/kg/injection, schedule: Q01DX009 (ip), vehicle: saline.
Where [7] appears, read: dose: 200.0 mg/kg/injection, schedule: Q01DX009 (ip), vehicle: saline.
[8] abbreviates: dose: 50.0 mg/kg/injection, schedule: Q01DX009 (ip), vehicle: Klucel (hydroxypropylcellulose) (HPC).

For the compound `C1CN1P1(N2CC2)=NP(N2CC2)(N2CC2)=NP(N2CC2)(N2CC2)=N1`, the T/C by setting is: (dose: 5.0 mg/kg/injection, schedule: Q01DX009 (ip), vehicle: saline) 231 % of control; (dose: 10.0 mg/kg/injection, schedule: Q01DX009 (ip), vehicle: saline) 222 % of control; (dose: 20.0 mg/kg/injection, schedule: Q01DX009 (ip), vehicle: saline) 122 % of control.

As for `CS(=O)(=O)N/N=C(\N)Oc1ccc(Cl)cc1Cl`, the T/C runs as follows: under setting [1], 97 % of control; under setting [2], 93 % of control; under setting [3], 88 % of control.

`C1=[N+]2N=C(SCc3ccccc3)S[B-]2([C+]2CCCCC2)Oc2ccccc21` (stereo unspecified): the T/C is, setting by setting: under setting [4], 91 % of control; (dose: 100.0 mg/kg/injection, schedule: Q01DX005 (ip), vehicle: saline with Tween-80) 94 % of control; (dose: 200.0 mg/kg/injection, schedule: Q01DX005 (ip), vehicle: saline with Tween-80) 91 % of control.

Take `O=[N+]([O-])c1ccc(NC(c2ccccc2)S(=O)(=O)O)cc1` (stereo unspecified): the T/C is, setting by setting: under setting [5], 119 % of control; under setting [6], 109 % of control; under setting [7], 123 % of control.

In the case of `CCC[CH2][Sn]1([CH2]CCC)[O]C(=O)CSC(=S)SCC(=O)[O]1`, the T/C (dose: 1.56 mg/kg/injection, schedule: Q01DX009 (ip), vehicle: saline) was 90 % of control; the T/C (dose: 3.12 mg/kg/injection, schedule: Q01DX009 (ip), vehicle: saline) is 92 % of control; the T/C (dose: 6.25 mg/kg/injection, schedule: Q01DX009 (ip), vehicle: saline with Tween-80) was 116 % of control; the T/C (dose: 6.25 mg/kg/injection, schedule: Q01DX009 (ip), vehicle: saline) was 89 % of control.

`CC(C)(C)c1cc(OCC2CO2)c(C(C)(C)C)cc1OCC1CO1` (stereo unspecified): the T/C reads like this: under setting [8], 107 % of control; (dose: 100.0 mg/kg/injection, schedule: Q01DX009 (ip), vehicle: Klucel (hydroxypropylcellulose) (HPC)) 105 % of control; (dose: 200.0 mg/kg/injection, schedule: Q01DX009 (ip), vehicle: Klucel (hydroxypropylcellulose) (HPC)) 106 % of control; (dose: 400.0 mg/kg/injection, schedule: Q01DX009 (ip), vehicle: Klucel (hydroxypropylcellulose) (HPC)) 116 % of control.

`CC(=O)c1ccccc1C(C)C`: the T/C runs as follows: (dose: 25.0 mg/kg/injection, schedule: Q01DX009 (ip), vehicle: saline with Tween-80) 100 % of control; (dose: 50.0 mg/kg/injection, schedule: Q01DX009 (ip), vehicle: saline with Tween-80) 109 % of control; (dose: 100.0 mg/kg/injection, schedule: Q01DX009 (ip), vehicle: saline with Tween-80) 119 % of control.

As to `c1ccc2c(c1)c1c(c3ccccc32)CNCC1`, the T/C is, setting by setting: (dose: 3.12 mg/kg/injection, schedule: Q01DX005 (ip), vehicle: saline with Tween-80) 97 % of control; (dose: 6.25 mg/kg/injection, schedule: Q01DX005 (ip), vehicle: saline with Tween-80) 95 % of control; (dose: 12.5 mg/kg/injection, schedule: Q01DX005 (ip), vehicle: saline with Tween-80) 101 % of control and 95 % of control; under setting [4], 117 % of control.

For the compound `Cc1c(COC(=O)NC(C)C)c(COC(=O)NC(C)C)c2c3ccccc3c3ccccc3n12`, the T/C is 180 % of control (dose: 12.5 mg/kg/injection, schedule: Q01DX009 (ip), vehicle: distilled water + Tween-80); 173 % of control (dose: 25.0 mg/kg/injection, schedule: Q01DX009 (ip), vehicle: distilled water + Tween-80); 110 % of control (dose: 50.0 mg/kg/injection, schedule: Q01DX009 (ip), vehicle: distilled water + Tween-80); 88 % of control (dose: 100.0 mg/kg/injection, schedule: Q01DX009 (ip), vehicle: distilled water + Tween-80).

Take `NCCCSc1ccccc1`: the T/C is 99 % of control (dose: 60.0 mg/kg/injection, schedule: Q01DX005 (ip), vehicle: saline) and 97 % of control (dose: 120.0 mg/kg/injection, schedule: Q01DX005 (ip), vehicle: saline).

For `CCCCCN(CCCCC)C(C)C(=O)c1ccc(Cl)cc1` (stereo unspecified), the T/C is 100 % of control (dose: 50.0 mg/kg/injection, schedule: Q01DX005 (ip), vehicle: Klucel (hydroxypropylcellulose) (HPC)); 100 % of control (dose: 100.0 mg/kg/injection, schedule: Q01DX005 (ip), vehicle: Klucel (hydroxypropylcellulose) (HPC)); 100 % of control (dose: 200.0 mg/kg/injection, schedule: Q01DX005 (ip), vehicle: Klucel (hydroxypropylcellulose) (HPC)).

With `O=C1c2ccccc2C(=O)N1Cc1cccc(I)c1`, the T/C is 97 % of control (dose: 60.0 mg/kg/injection, schedule: Q01DX005 (ip), vehicle: Klucel (hydroxypropylcellulose) (HPC)) and 94 % of control (dose: 120.0 mg/kg/injection, schedule: Q01DX005 (ip), vehicle: Klucel (hydroxypropylcellulose) (HPC)).

As to `CCOC(=O)Nc1cc2c(c(N)n1)N=C(c1ccc(OC)cc1)CN2`, the T/C runs as follows: (dose: 1.5 mg/kg/injection, schedule: Q01DX009 (ip), vehicle: Klucel (hydroxypropylcellulose) (HPC)) 105 % of control; (dose: 6.25 mg/kg/injection, schedule: Q01DX001 (ip), vehicle: Klucel (hydroxypropylcellulose) (HPC)) 110 % of control; (dose: 6.25 mg/kg/injection, schedule: Q04DX003 (ip), vehicle: Klucel (hydroxypropylcellulose) (HPC)) 110 % of control; (dose: 12.5 mg/kg/injection, schedule: Q04DX003 (ip), vehicle: Klucel (hydroxypropylcellulose) (HPC)) 158 % of control; (dose: 25.0 mg/kg/injection, schedule: Q01DX001 (ip), vehicle: Klucel (hydroxypropylcellulose) (HPC)) 150 % of control; (dose: 25.0 mg/kg/injection, schedule: Q04DX003 (ip), vehicle: Klucel (hydroxypropylcellulose) (HPC)) 163 % of control.

Regarding `CC(Nc1ccc(Cl)cc1)S(=O)(=O)O` (stereo unspecified), the T/C by setting is: under setting [5], 106 % of control; under setting [6], 100 % of control; under setting [7], 106 % of control.

`COC(=O)C1c2ccc(OC)c(OC)c2C(=O)N2CCc3cc(OC)c(OC)cc3C12` (stereo unspecified): the T/C is, setting by setting: (dose: 50.0 mg/kg/injection, schedule: Q04DX003 (ip), vehicle: distilled water + Tween-80) 93 % of control; (dose: 100.0 mg/kg/injection, schedule: Q04DX003 (ip), vehicle: distilled water + Tween-80) 96 % of control; (dose: 200.0 mg/kg/injection, schedule: Q04DX003 (ip), vehicle: distilled water + Tween-80) 87 % of control; (dose: 400.0 mg/kg/injection, schedule: Q04DX003 (ip), vehicle: distilled water + Tween-80) 110 % of control.

Regarding `CC(=O)Nc1ccc(OCCOC(=O)Nc2ccc(C)cc2[N+](=O)[O-])cc1`, the T/C under setting [8] was 88 % of control.

Regarding `O=C(O)CC(Sc1ccc(Cl)cc1)C(=O)Nc1ccccc1` (stereo unspecified), the T/C is 99 % of control under setting [1], 95 % of control under setting [2] and 98 % of control under setting [3].

Turning to `Cc1ccc(C(=O)Nc2c(C)cccc2C)cc1`, the T/C was 98 % of control under setting [1] and 92 % of control under setting [2].

As to `C=CC(C)n1[nH]c(=O)n(-c2ccc(O)c([N+](=O)[O-])c2)c1=O` (stereo unspecified), the T/C under setting [1] is 100 % of control, the T/C under setting [2] is 98 % of control and the T/C under setting [3] is 94 % of control.

With `NCCn1[nH]c(=O)c2cnccc2c1=O`, the T/C is 95 % of control under setting [1], 100 % of control under setting [2] and 95 % of control under setting [3].

In the case of `[Cl][Sn]([CH2][Sn]([Cl])([c]1ccccc1)[c]1ccccc1)([c]1ccccc1)[c]1ccccc1`, the T/C by setting is: (dose: 0.39 mg/kg/injection, schedule: Q01DX005 (ip), vehicle: Klucel (hydroxypropylcellulose) (HPC)) 103 % of control; (dose: 0.79 mg/kg/injection, schedule: Q01DX005 (ip), vehicle: Klucel (hydroxypropylcellulose) (HPC)) 104 % of control; (dose: 1.56 mg/kg/injection, schedule: Q01DX005 (ip), vehicle: Klucel (hydroxypropylcellulose) (HPC)) 106 % of control; (dose: 3.12 mg/kg/injection, schedule: Q01DX005 (ip), vehicle: Klucel (hydroxypropylcellulose) (HPC)) 97 % of control; (dose: 12.5 mg/kg/injection, schedule: Q01DX005 (ip), vehicle: Klucel (hydroxypropylcellulose) (HPC)) 116 % of control.

Regarding `C[n+]1c(/C=C/c2ccc([N+](=O)[O-])cc2)ccc2ccccc21`, the T/C was 100 % of control (dose: 3.3 mg/kg/injection, schedule: Q01DX009 (ip), vehicle: saline sonified); 111 % of control (dose: 6.5 mg/kg/injection, schedule: Q01DX009 (ip), vehicle: saline sonified); 111 % of control (dose: 12.5 mg/kg/injection, schedule: Q01DX009 (ip), vehicle: saline sonified).
